Assay [1] has as its system PANC-1/IDX-1 cells. Nature of the assay: Insulin release into culture medium (RIA), PANC-1 cells transfected with human IDX-1. It counts as cell-based. The protocol:
Rat (ARIP) and human (PANC-1) ductal cell lines were respectively a gift from Dr. J. M. Egan (National Institute on Aging, Baltimore, Md.) or purchased from ATCC (American Type Culture Collection; Manassas, Va.). ARIP cells were cultured in F12 medium (Gibco-BRL, Gaithersburg; Md.) containing 100 μg/ml penicillin, 50 μg/ml streptomycin and 10% fetal calf serum (FCS; Gibco-BRL) at 37° C. under a humidified condition of 95% air and 5% CO2. PANC-1 cells were cultured in DMEM medium supplemented with antibiotics and FCS, as indicated for F12 medium. Treatment with human GLP-1 (H-6795, Bachem; King of Prussia, Pa.) was carried out using cells grown to 80% of confluence, after washing the cell layer with serum-free medium and a “wash-out” incubation for 6-h with serum free medium. To determine dose response to GLP-1, cells were cultured with fresh serum-free medium containing increasing concentration of GLP-1 (0.1, 1, 10, 20 nM), or vehicle alone. At the completion of the experiment, media and cells were collected. To determine the time course of response, cells were cultured in serum-free medium with GLP-1 (10 nM) for 0, 12, 24, 48, 72 or 96 h. Control dishes were cultured with vehicle alone, or with the peptide receptor antagonist of GLP-1, Exendin-9 (100 nM) for 72 h (gift Dr. J. M. Egan). The glucose concentration in the culture medium was 12 mM for both cell lines.
(§1) PANC-1 cells were transfected with a pcDNA3 construct (Invitrogen; Carlsbad, Calif.) harboring the wild-type full-length IDX-1 cDNA using LipoTAXI (Catalog N. 204110; Mammalian Transfection Kit, Stratagene; La Jolla, Calif.). Control cells were transfected with the vector alone. The selection of positive (i.e. transfected) cells was carried out by culturing the cells in the presence of 400 μg/ml of G418 sulfate (GN-04, Omega; Tarzana, Calif.).
PANC-1 (parental, IDX-1-transfected, and neomycin-transfected) cells and ARIP (only parental) cells were plated at density of 10^6 cells/well in a 6 well plate. Once the cells reached 80% of confluence, they were washed with serum-free medium containing 12 mM glucose and exposed to fresh serum-free medium for increasing length of time (0, 12, 24, 48, 72, 96 h) in the presence of various concentrations of GLP-1 (0.1, 1, 10, 20 nM) or vehicle. Glucose-dependent insulin secretion was evaluated by culturing the cells in the presence of a determined concentration of GLP-1 (10 nM for 72 h) with increasing concentration of glucose in the culture medium ([…]). Insulin released into the medium was measured by RIA (Linco Research Inc.; St. Charles, Mass.). Total insulin accumulation in the culture medium was then normalized for total cellular protein content per each Individual cultures.
Total cellular protein content was measured by utilizing the Bradford method (Bio-Rad; Richmond, Calif.). The amount of proteins measured was used as a correction factor for determining the relative amount of medium to be assayed for each individual RIA for insulin.

For assay [2], the system named is PANC-1/IDX-1 cells. Nature of the assay: Flow cytometric (FACS) analysis for insulin, PANC-1/IDX-1 cells. It counts as cell-based, human. To be noted: GLP-1 10 nM, 72 h. The protocol: as §1
For fluorescence-activated cells sorting (FACS) analysis, cells were cultured in the presence of GLP-1 (10 nM), or vehicle, for 72 h, then washed with cold PBS (pH 7.4; three times) and incubated overnight, on ice, in PBS with 2% paraformaldehyde. After centrifugation, the cell pellet was resuspended in 400 μl of cold 0.1% Triton diluted in FACS buffer (PBS with 2% FCS). After several centrifugation and washes, the cells were resuspended in the assay buffer with of 10 μl of fluorescent-conjugated insulin antibody (Cat N. FM205, FITC: Chromaprobe, Inc; Mountain View, Calif.), in the presence of 10 μl of blocking antibody (anti-mouse IgG; Organon Teknika-Cappel, West Chester, Pa.). […] Flow cytometric analysis was performed with a FACScan[R] cytometer, using the LYSYS II program, and by fluorescence microscopy, as is well known in the art. […]

Assay [3] deals with ARIP cells. Nature of the assay: Immunocytochemistry for insulin, ARIP cells. It counts as cell-based, rat. The settings on record: GLP-1 10 nM, 72 h. The protocol: (§2) Cells were cultured on monocoated chamber slides (Nalge Nunc International; Naperville, Ill.) in the presence of GLP-1 (10 nM), or vehicle, for 72 h.
For the detection of insulin, cells were washed and fixed with 3% paraformaldehyde for 4 h, at room temperature in PBS, solubilized with 0.1% (vol/vol) Triton X-100 in PBS for 5 min. Cells were then incubated sequentially with an anti-insulin antibody and a secondary antibody, as described by the manufacturer (Biomeda Corp.; Foster City, Calif.). The cells were examined using a Ziess Axiophoto microscope (New York, N.Y.).

The subject of assay [4] is PANC-1 cells. Put plainly: Immunofluorescence for IDX-1, parental PANC-1 cells. Format: cell-based, human. To be noted: vehicle alone or GLP-1. As to the method: as §2
For the detection of IDX-1, slightly different conditions were used. Briefly: the concentration of paraformaldehyde was decreased to 2%, and the concentration of Triton to permeabilize the cells was raised to 0.2% Triton-X-100. Cells were then washed with 0.01 M PBS three times for 3-5 min, and non-specific binding was inhibited by using 5% chick serum in 0.01 M PBS, at room temperature for 60 min in a humid chamber. A rabbit IDX-1 antibody directed against the N-terminus of the frog homologue of the IDX-1 gene was used as the primary antibody (1:500 diluted with 0.1% Triton-X 100, 1% BSA in 0.01 M PBS), and slides were incubated at 4° C. overnight in a humid chamber. After washing, cells were incubated with a fluorescein-conjugated goat anti-rabbit IgG antibody (Molecular Probes, Inc. Eugene, Oreg.) and incubated at room temperature for 1 hour in a humid chamber. Nuclei of cells stained with anti-IDX-1 antibody were visualized with Hoechst […] dye (Sigma, St. Louis, Mo.). The percentage of IDX-1 containing cells was evaluated by counting the number of IDX-1 “positive” cells divided by the total number of cells identified by nuclear staining.

The test system of assay [5] is ARIP cells. Nature of the assay: Morphological changes (hematoxylin and eosin), ARIP cells. It counts as cell-based, rat. To be noted: GLP-1 10 nM for 72 h. The text has this:
(§3) Hematoxylin and eosin staining was employed, in some experiments, to show the morphological changes observed under the experimental conditions described below.

Assay [6] relates to PANC-1 cells. Nature of the assay: Morphological changes (hematoxylin and eosin), parental PANC-1 cells. Format: cell-based, human. The settings on record: GLP-1 10 nM for 72 h.
Source text: as §3

glucagon-like peptide-1 [GLP-1]: in the assay with PANC-1/IDX-1 cells [1] (GLP-1 10 nM for 72 h), the “lowest concentration of glucose required to induce the secretion of insulin” value is recorded as 3 mM. Besides, the “glucose dependence of insulin release” value in the assay on PANC-1/IDX-1 cells [1] (GLP-1 10 nM for 72 h, increasing glucose) is given as “release insulin in a glucose-dependent manner”. Further, in the assay with PANC-1/IDX-1 cells [1] (GLP-1 10 nM, 12 mM glucose), the “time of peak insulin secretion” value is not above 48 h and the “time of plateau of insulin secretion” value is 72 h. For the same substance, the “concentration of GLP-1 required to induce insulin secretion” value in the assay on PANC-1/IDX-1 cells [1] (serum-free medium, 12 mM glucose, 72 h) was 1 nM. In addition, in the assay on PANC-1/IDX-1 cells [2], the “cultured cells converted from insulin negative to insulin positive” value turned out to be 61.7%. Further, the insulin immunostaining entry with ARIP cells [3] is reported as “positive immunoreactivity for insulin”. Also, in the assay on PANC-1 cells [4], the IDX-1 staining result is given as “No positive IDX-1 staining”. In addition, in the assay with ARIP cells [5], the morphological change entry is “promoted the aggregation of cells in small clusters”. For the same substance, the morphological change result in the assay with PANC-1 cells [6] is reported as “did not respond”.
